# Measured values: patent US20170079267A1, “SEX PHEROMONE COMPOSITION OF PEACH FRUIT MOTH AND ATTRACTANT COMPRISING THE SAME” (SHIN-ETSU CHEMICAL CO., LTD., priority 2011, published 2017)
# Test system: antenna of a male adult of peach fruit moth
# Assay: GC-EAD (electroantennographic detection) of the extract of peach fruit moth
# Parameters: species or system Carposina sasakii
# Settings: GC-EAD of pheromone gland extract; male adult 3 to 5 days after eclosion
# Method: An EAD chart of the extract of peach fruit moth (Carposina sasakii) is shown in FIG. 1A and a GC chart of the extract is shown in FIG. 1B. […] In FIG. 1B, the peaks for components (5) and (6) were at the detection limit or less so that they were not detected.
# In this time zone, the pheromone gland was excised from a virgin female adult (2 to 3 days old) under a microscope and immersed in n-hexane for 30 minutes. Then the insect body tissues were removed from the extraction liquid by filtration to produce an extract of peach fruit moth.
# A GC-EAD (Gas Chromatography-Electroantennographic Detection) chart of the above extract of peach fruit moth is shown in FIG. 1.
# Structural analyses of dimethyl disulfide (DMDS) adducts was conducted for each of the unsaturated bond sites of the monoene components. Finally, it was found in comparison with the retention times and mass spectra of the corresponding synthesized products that the components (1) to (6) were docosane, tricosane, (Z)-7-tricosene, (Z)-5-pentacosene, (Z)-12-nonadecen-9-one and (Z)-7-heneicosen-11-one, respectively, and the mixing weight ratio thereof was 6:341:432:36:2:8 with respect to 100 of (Z)-13-eicosen-10-one. FIGS. 2 to 7 show the mass spectra of the components (1) to (6) in the extract of peach fruit moth, while FIGS. 8 to 13 show the mass spectra of the commercial products and synthesized compounds.
smiles,measurement,value
CCCCCC/C=C\CCC(=O)CCCCCCCCC [(Z)-13-eicosen-10-one],potential response of the antenna of a male adult (EAD),showed a potential response
